From ChEMBL document CHEMBL3853300, “Synthesis of α-santonin derived acetyl santonous acid triazole derivatives and their bioevaluation for T and B-cell proliferation” (Eur J Med Chem, 2016)

Legend:
[1] = organism: Mus musculus; experiment: Cytotoxicity against Balb/c mouse B cells assessed as decrease in cell viability at 100 uM after 48 hrs by MTT assay; type: toxicity, cell-based
[2] = organism: Mus musculus; experiment: Cytotoxicity against Balb/c mouse B cells assessed as decrease in cell viability at 10 uM after 48 hrs by MTT assay; type: toxicity, cell-based
[3] = organism: Mus musculus; experiment: Cytotoxicity against Balb/c mouse B cells assessed as decrease in cell viability at 1 uM after 48 hrs by MTT assay; type: toxicity, cell-based
[4] = organism: Mus musculus; experiment: Cytotoxicity against Balb/c mouse T cells assessed as decrease in cell viability at 100 uM after 48 hrs by MTT assay; type: toxicity, cell-based
[5] = organism: Mus musculus; experiment: Cytotoxicity against Balb/c mouse T cells assessed as decrease in cell viability at 10 uM after 48 hrs by MTT assay; type: toxicity, cell-based
[6] = organism: Mus musculus; experiment: Cytotoxicity against Balb/c mouse T cells assessed as decrease in cell viability at 1 uM after 48 hrs by MTT assay; type: toxicity, cell-based
[7] = Immunosuppressive activity in Balb/c mouse T cells assessed as inhibition of ConA-induced cell proliferation at 100 uM after 48 hrs by MTT assay relative to control; type: functional
[8] = Immunosuppressive activity in Balb/c mouse B cells assessed as inhibition of LPS-induced cell proliferation at 100 uM after 48 hrs by MTT assay relative to control; type: functional
[9] = Immunosuppressive activity in Balb/c mouse B cells assessed as inhibition of LPS-induced cell proliferation at 10 uM after 48 hrs by MTT assay relative to control; type: functional
[10] = Immunosuppressive activity in Balb/c mouse B cells assessed as inhibition of LPS-induced cell proliferation at 1 uM after 48 hrs by MTT assay relative to control; type: functional
[11] = test system: T-cell; experiment: Immunosuppressive activity in Balb/c mouse T cells assessed as inhibition of ConA-induced cell proliferation after 48 hrs by MTT assay relative to control; type: functional, cell-based
[12] = Immunosuppressive activity in Balb/c mouse T cells assessed as inhibition of ConA-induced cell proliferation at 10 uM after 48 hrs by MTT assay relative to control; type: functional
[13] = Immunosuppressive activity in Balb/c mouse T cells assessed as inhibition of ConA-induced cell proliferation at 1 uM after 48 hrs by MTT assay relative to control; type: functional
[14] = test system: B; experiment: Immunosuppressive activity in Balb/c mouse B cells assessed as inhibition of LPS-induced cell proliferation after 48 hrs by MTT assay relative to control; type: functional, cell-based
[15] = Immunostimulatory activity in Balb/c mouse B cells assessed as induction of LPS-induced cell proliferation at 1 uM after 48 hrs by MTT assay relative to control; type: cell-based

Compound	Activity [1]	Activity [2]	Activity [3]	Activity [4]	Activity [5]	Activity [6]	inhibition at 100 µM [7] [%]	inhibition at 100 µM [8] [%]	inhibition at 10 µM [9] [%]	inhibition at 1 µM [10] [%]	inhibition [11]	inhibition at 10 µM [12] [%]	inhibition at 1 µM [13] [%]	inhibition [14]	Activity [15] [%]
COc1ccc(-n2cc(COC(=O)[C@H](C)[C@@H]3CCc4c(C)cc(OC(C)=O)c(C)c4C3)nn2)cc1	Toxic	Non-Toxic	Toxic	Toxic	Non-Toxic	Toxic	30.1	15.4	36.8	42.3	Dose-dependent effect	36	33.8	Dose-dependent effect	–
CC(=O)Oc1cc(C)c2c(c1C)C[C@H]([C@@H](C)C(=O)OCc1cn(-c3ccc(CC#N)cc3)nn1)CC2	Toxic	Toxic	Toxic	Toxic	Toxic	Toxic	68.9	65.6	58.8	59.5	Dose-dependent effect	47	21.2	Dose-dependent effect	–
COc1ccccc1-n1cc(COC(=O)[C@H](C)[C@@H]2CCc3c(C)cc(OC(C)=O)c(C)c3C2)nn1	Non-Toxic	Non-Toxic	Toxic	Non-Toxic	Non-Toxic	Toxic	29.4	6.59	32.4	27.5	Dose-dependent effect	33.1	8.08	Dose-dependent effect	–
CC(=O)Oc1cc(C)c2c(c1C)C[C@H]([C@@H](C)C(=O)OCc1cn(-c3ccc(Cl)nc3)nn1)CC2	Non-Toxic	Toxic	Non-Toxic	Non-Toxic	Toxic	Non-Toxic	1.85	33.7	24	–	Dose-dependent effect	17.6	17.6	Dose-dependent effect	9.71
CC(=O)Oc1cc(C)c2c(c1C)[C@@H]1OC(=O)[C@@H](C)[C@@H]1CC2	Non-Toxic	Toxic	Toxic	Non-Toxic	Toxic	Toxic	75	70	44.3	61.8	Dose-dependent effect	49.2	47.7	Dose-dependent effect	–
CCCCn1cc(COC(=O)[C@H](C)[C@@H]2CCc3c(C)cc(OC(C)=O)c(C)c3C2)nn1	Toxic	Toxic	Non-Toxic	Toxic	Toxic	Non-Toxic	41.3	44.2	29.9	31.2	Dose-dependent effect	24	21.4	Dose-dependent effect	–
CC(=O)Oc1cc(C)c2c(c1C)C[C@H]([C@@H](C)C(=O)OCc1cn(-c3ccc(Cl)cc3)nn1)CC2	Toxic	Non-Toxic	Toxic	Toxic	Non-Toxic	Toxic	13	34.3	25.1	34.3	Dose-dependent effect	28.7	37	Dose-dependent effect	–
CC(=O)Oc1cc(C)c2c(c1C)C[C@H]([C@@H](C)C(=O)OCc1cn(-c3cccc([N+](=O)[O-])c3)nn1)CC2	Non-Toxic	Toxic	Toxic	Non-Toxic	Toxic	Toxic	10.2	24.6	26.9	29.1	Dose-dependent effect	30.6	45.4	Dose-dependent effect	–
CC(=O)Nc1ccc(-n2cc(COC(=O)[C@H](C)[C@@H]3CCc4c(C)cc(OC(C)=O)c(C)c4C3)nn2)cc1	Toxic	Toxic	Toxic	Toxic	Toxic	Toxic	33.8	39	31.3	24.2	Dose-dependent effect	50	22.1	Dose-dependent effect	–
CC(=O)Oc1cc(C)c2c(c1C)C[C@H]([C@@H](C)C(=O)OCc1cn(-c3ccccc3F)nn1)CC2	Non-Toxic	Non-Toxic	Non-Toxic	Non-Toxic	Non-Toxic	Non-Toxic	5.88	39.6	34.6	50.5	Dose-dependent effect	11.8	53.7	Dose-dependent effect	–
CCCCCn1cc(COC(=O)[C@H](C)[C@@H]2CCc3c(C)cc(OC(C)=O)c(C)c3C2)nn1	Toxic	Toxic	Toxic	Toxic	Toxic	Toxic	30.6	43.1	41.9	42.4	Dose-dependent effect	27.6	15.6	Dose-dependent effect	–
CC(=O)Oc1cc(C)c2c(c1C)C[C@H]([C@@H](C)C(=O)OCc1cn(-c3cccnc3Cl)nn1)CC2	Non-Toxic	Toxic	Toxic	Non-Toxic	Toxic	Toxic	17.6	22.5	15.4	30.8	Dose-dependent effect	25	5.88	Dose-dependent effect	–
